Measured values from patent publication US10166236B2, “Pharmaceutical formulations comprising substituted pyrazolo[5,1-c]pyrido[4,3-e][1,2,4]triazines for treating lysosomal storage disorders” (Perlara PBC, priority 2016, dated 2019).

Key:
[1] = test system: Coriell GM18453 (I1061T/I1061T) cells; assay: Filipin staining of cholesterol in NPC patient fibroblasts; format: cell-based, human; details: 10 μM; for amount of cytoplasmic free/unesterified cholesterol as visualized by filipin staining, relative to vehicle control: 48 hr incubation, FIG. 1
Procedure: Compound 1 was tested in vitro for its effect on cholesterol localization in NPC fibroblasts. The following experiments utilized Coriell GM18453 (I1061T/I1061T) cells which are immortalized cell lines prepared from NPC patient fibroblasts. These cells have a known deficiency in cholesterol esterification. Compound 1 (FIG. 1B), U18666A (positive control, FIG. 1C), and DMSO (vehicle control, FIG. 1A) were individually dispensed into 96 well In Vitro Scientific glass bottom black walled plates using the Echo acoustic liquid handler for the final concentrations indicated. Cells were suspended in media (DMEM, 5% FBS, 1% P/S, 2 mM L-glutamine) and then added to each well at 1750 cells per well. The final concentration of Compound 1 and […] was 10 μM. After a 48 hr incubation cells were fixed and stained with filipin using components from the Cholesterol Cell Based Detection Kit from Cayman. Filipin was used at a final concentration of 50 μg/mL. Cells were imaged using the ImageXpress from Molecular Devices and analyzed with MetaXpress. […] The experiment was repeated in GM18453 cells except that filipin staining was assessed in one set of wells every 24 hours for a total of five days. FIG. 2A provides an exemplary photomicrograph of a cells treated with vehicle control. There were no notable changes to the filipin staining of the vehicle-treated over the five day culture period, FIG. 2B-2F are representative photomicrographs of the Compound 1-treated cells after 1-5 days in culture, respectively.

[2] = test system: NPC1 null worms; assay: Egg count in NPC1 null nematodes (rescue of nematode model of NPC); format: in vivo, C. elegans; details: Day 1 adults; for number of eggs per adult worm relative to DMSO control or SAHA: with or without supplemental cholesterol, p<0.001 relative to DMSO, Student's t-test
Procedure: This experiment tested the ability of Compound 1 to rescue NPC-1 null nematodes. A population of NPC1 null worms was scaled up on large petri plates (100 mm or 60 mm) to produce a large population of gravid adults. One day prior to assay, the adult worms were bleached to obtain all eggs. Eggs were allowed to hatch overnight in M9 by rocking tubes. On day of assay, the presence of L1 larvae was confirmed. A lawn of HB101 bacteria were grown on NGM agar plates (4 ml). The plates were prepared either with or without exogenous cholesterol. […] An additional set of plates prepared with 25% cremaphor alone was used as a second vehicle control. Fifty to seventy L1 larvae were added to each plate and incubated at room temperature for two days. On day 3, L1 worms had matured into Day 1 adults bearing row of eggs. Eggs were counted microscopically and the average number of eggs per adult worm for each incubation condition was calculated. […] There was no statistically significant difference between treatment with DMSO control in the 25% cremaphor carrier relative to the carrier alone (data not shown).

For CN(C)CCCn1ccc2c(nnc3c(-c4ccc(F)cc4)cnn32)c1=O [Compound 1, 11-[3-(Dimethylamino)propyl]-5-(p-fluorophenyl)-2.3.7.8.11-pentazatricyclo[7.4.0.0^2,6]trideca-1(9),3,5,7,12-pentaen-10-one], the “amount of cytoplasmic free/unesterified cholesterol as visualized by filipin staining, relative to vehicle control” value [1] was “increase in the amount of cytoplasmic free/unesterified cholesterol”, the “amount of cytoplasmic free/unesterified cholesterol (filipin staining), time course” value ([1]; assessed every 24 hours for five days, FIG. 2) was “Increases in the amount of cytoplasmic free/unesterified cholesterol were observed after a 24 hour culture period and the effect was sustained throughout the five day study period” and the “number of eggs per adult worm relative to DMSO control or SAHA” value ([2]; 25 μM, FIG. 3C) was “statistically significant increase in the number of eggs per adult worm”.
With CCN(CC)CCO[C@H]1CC[C@@]2(C)C(=CC[C@@H]3[C@@H]2CC[C@]2(C)C(=O)CC[C@@H]32)C1 [Compound U18666A] the “amount of cytoplasmic free/unesterified cholesterol as visualized by filipin staining, relative to vehicle control” value [1] was “increase in the amount of cytoplasmic free/unesterified cholesterol” and the “egg laying deficit of NPC null nematodes (eggs per adult worm)” value ([2]; 75 μM, FIG. 3B) was “significantly exacerbates the egg laying deficit”.
For cyclodextrin, the “number of eggs per adult worm relative to DMSO control or SAHA” value ([2]; 0.5%, FIG. 3E) was “statistically significant increase in the number of eggs per adult worm”.
